Patent US20260130377A1 (SYNGENTA CROP PROTECTION AG, priority 2022, published 2026)

What was measured:
[1] = test system: Zymoseptoria tritici; assay: liquid culture assay, 96 well plate, Zymoseptoria tritici; format: cell-based
Protocol: (§1) Cyclothiazomycin C was produced as disclosed in WO2015191789. A stock solution for cyclothiazomycin C was produced in DMSO (max. 10 mg/ml). Malonomicin was produced according to Law et al, 2018 (Nature Catalys is|VOL 1|DECEMBER 2018|977-984). A stock solution of malonomicin was produced in water plus 0.025% Tween®20.
(§2) Assays to test efficacy of mixtures of cyclothiazomycin C in combination with malonomicin on the control of fungal pathogens in a liquid culture assay were designed for a 96 well plate.
(§3) A master plate with 10× concentrated solution of the compound stock solutions diluted in water plus 0.025% Tween20 was prepared. The concentration of DMSO (from the stock of cyclothiazomycin C) and Tween20 was kept constant in all cells of th the master plate. 10 μl was transferred from the master plate to a 96 well test plate. The nutrient broth containing the fungal spores/mycelia fragments was then added to the test plate to give an end concentration of 1× for the tested compounds (as outlined in Table 1). The test plates were incubated in the dark at 24° C. and 96% rh. The inhibition of fungal growth was determined photometrically after ca. 3 days, and percent fungal growth reduction relative to the untreated check was calculated. Efficacy of the mixtures was tested on different fungal species:
Zymoseptoria tritici (EPPO Code: SEPTTR)
(§4) Conidia of the fungus from cryogenic storage were directly mixed into nutrient broth (PDB: potato dextrose broth).

[2] = test system: genus Bacillus; details: quoted from WO2015191789, page 31; cited from earlier work
[3] = test system: Puccinia recondita; assay: wheat leaf disc assay, Puccinia recondita, curative spray timing; format: in vivo
Protocol: as §1, with “Tween20.” for “Tween®20.”
(§5) Assays to test efficacy of mixtures of cyclothiazomycin C in combination with malonomicin on the control of fungal pathogens in a leaf disc assay were designed for two plates.
(§6) A first set of master plates with 1× concentrated spray solution of the cyclothiazomycin C stock diluted in water with concentrations according to Table 11 or Table 12, respectively, was prepared. Each well contained 2% DMSO and 0.025% Tween20. Accordingly, a second set of master plates with 1× concentrated malonomicin stock diluted in water was prepared. Each well of the second set contained 0.025% Tween20. Leaf segments placed on agar in plates are sprayed with 8 ul of solution from the master plate containing cyclothiazomycin C and the leaf segments were let to dry, followed 2 hours later by 8 ul of solution from the master plate containing malonomicin. After second sprays have dried, leaf segments are infected with fungal spores to obtain a preventive application timing. Alternatively, leaf segments infected one day before spray of the compounds are used, resulting in a curative spray timing. In addition, several plates were produced where leaf segments were sprayed 2× in absence of test compound (with only DMSO and Tween20), representing the untreated check samples. For each leaf segment percent leaf coverage of disease symptoms was assessed. Percent leaf coverage reduction relative to the untreated check was calculated. Efficacy of the mixtures was tested in duplicate. Reported efficacy values are the average of two replicate results.
Puccinia recondita (EPPO Code: PUCCRE) with Curative Spray Timing.
Wheat (cultivar Kanzler) leaf segments are placed on agar in multiwell plates. The leaf disks are then inoculated with a spore suspension of the fungus. One day after inoculation the test solution is sprayed (8 ul per well). After appropriate incubation the activity of a compound is assessed 8 dpi (days after inoculation) as curative fungicidal activity

[4] = test system: Botrytis cinerea; assay: liquid culture assay, 96 well plate, Botrytis cinerea; format: cell-based
Protocol: as §1, §2, §3
Botrytis cinerea (EPPO Code: BOTRCI)
Conidia of the fungus from cryogenic storage were directly mixed into nutrient broth (Vogel's minimal media).

[5] = test system: Puccinia recondita; assay: wheat leaf disc assay, Puccinia recondita, preventive spray timing; format: in vivo
Protocol: as §1, with “Tween20.” for “Tween®20.”
as §5, §6
Puccinia recondita (EPPO Code: PUCCRE) with Preventive Spray Timing.
Wheat (cultivar Kanzler) leaf segments are placed on agar in multiwell plates and sprayed with test solutions (8 ul per well). After drying, the leaf disks are inoculated with a spore suspension of the fungus. After appropriate incubation the activity of a compound is assessed 8 dpi (days after inoculation) as preventive fungicidal activity.

[6] = test system: Microdochium nivale; assay: liquid culture assay, 96 well plate, Microdochium nivale; format: cell-based
Protocol: as §1, §2, §3
Microdochium nivale (EPPO Code: MONGNI)
as §4

[7] = test system: a variety of fungal strains; details: quoted from WO2015191789, page 31; cited from earlier work
[8] = test system: Fusarium culmorum; assay: liquid culture assay, 96 well plate, Fusarium culmorum; format: cell-based
Protocol: as §1, §2, §3
Fusarium culmorum (EPPO Code: FUSACU)
as §4

[9] = cyclothiazomycin C 1.56 ppm solo
[10] = cyclothiazomycin C 3.125 ppm solo
[11] = cyclothiazomycin C 6.25 ppm solo
[12] = cyclothiazomycin C 12.5 ppm solo
[13] = cyclothiazomycin C 100 ppm solo
[14] = cyclothiazomycin C 3.13 ppm solo
[15] = cyclothiazomycin C 200 ppm solo

With C=C1NC(=O)CNC(=O)[C@H](CCCCN)NC(=O)[C@@]2(C)NC(=O)/C(=C/C)NC(=O)[C@H]3CSC(=N3)[C@@H](CC(N)=O)NC(=O)c3ccc(nc3[C@@H](C)NC(=O)[C@@H]3CCCN3C1=O)-c1nc(cs1)C1=N[C@H](CS1)C(=O)NC(=C)c1nc(cs1)-c1nc(cs1)C1=N[C@@H](CS1)C(=O)N[C@@H](C(=O)O)CS2 [cyclothiazomycin C] the “control of fungal growth” value [1, 9] was 70%, the “control of fungal growth” value [1, 10] was 70% and the “control of fungal growth” value [1, 11] was 70%. For the same compound, the “control of fungal growth” value [1, 12] was 70%, the “control of fungal growth” value ([1]; cyclothiazomycin C 25 ppm solo) was 90% and the “control of fungal growth” value ([1]; cyclothiazomycin C 50 ppm solo) was 90%. The “control of fungal growth” value [1, 13] was 100%, the antimicrobial inhibitory activity [2] was “greatest inhibitory activity” and the “control of fungal growth (% reduction of symtoms on the leaf segment)” value [3, 14] was 0%. The “control of fungal growth (% reduction of symtoms on the leaf segment)” value [3, 11] was 10%, the “control of fungal growth (% reduction of symtoms on the leaf segment)” value [3, 12] was 0% and the “control of fungal growth (% reduction of symtoms on the leaf segment)” value ([3]; cyclothiazomycin C 25 ppm solo) was 0%. The “control of fungal growth (% reduction of symtoms on the leaf segment)” value ([3]; cyclothiazomycin C 50 ppm solo) was 0%, the “control of fungal growth (% reduction of symtoms on the leaf segment)” value [3, 13] was 0% and the “control of fungal growth (% reduction of symtoms on the leaf segment)” value [3, 15] was 0%. For the same compound, the “control of fungal growth” value [4, 9] was 20%, the “control of fungal growth” value [4, 10] was 20% and the “control of fungal growth” value [4, 11] was 20%. For the same compound, the “control of fungal growth” value [4, 12] was 20%, the “control of fungal growth” value ([4]; cyclothiazomycin C 25 ppm solo) was 20% and the “control of fungal growth” value ([4]; cyclothiazomycin C 50 ppm solo) was 20%. The “control of fungal growth” value [4, 13] was 20%, the “control of fungal growth (% reduction of symtoms on the leaf segment)” value [5, 14] was 0% and the “control of fungal growth (% reduction of symtoms on the leaf segment)” value [5, 11] was 0%. The “control of fungal growth (% reduction of symtoms on the leaf segment)” value [5, 12] was 10%, the “control of fungal growth (% reduction of symtoms on the leaf segment)” value ([5]; cyclothiazomycin C 25 ppm solo) was 95% and the “control of fungal growth (% reduction of symtoms on the leaf segment)” value ([5]; cyclothiazomycin C 50 ppm solo) was 95%. The “control of fungal growth (% reduction of symtoms on the leaf segment)” value [5, 13] was 95%, the “control of fungal growth (% reduction of symtoms on the leaf segment)” value [5, 15] was 100% and the “control of fungal growth” value [6, 9] was 70%. The “control of fungal growth” value [6, 10] was 70%, the “control of fungal growth” value [6, 11] was 70% and the “control of fungal growth” value [6, 12] was 70%. For the same compound, the “control of fungal growth” value ([6]; cyclothiazomycin C 25 ppm solo) was 90%, the “control of fungal growth” value ([6]; cyclothiazomycin C 50 ppm solo) was 90% and the “control of fungal growth” value [6, 13] was 90%. For the same compound, the “growth inhibitory action toward a variety of fungal strains” value [7] was “none was observed”, the “control of fungal growth” value [8, 9] was 20% and the “control of fungal growth” value [8, 10] was 20%. The “control of fungal growth” value [8, 11] was 20%, the “control of fungal growth” value [8, 12] was 20% and the “control of fungal growth” value ([8]; cyclothiazomycin C 25 ppm solo) was 20%. For the same compound, the “control of fungal growth” value ([8]; cyclothiazomycin C 50 ppm solo) was 20% and the “control of fungal growth” value [8, 13] was 20%.
